Converted amounts (≈) assume the structure as drawn. Like-named read-outs stand apart in the source and are kept apart here.
Columns and labels:
[1] = Formulated solubility in 20% hydroxypropyl beta cyclodextrin aqueous solution with 5% dextrose; assay type: physicochemical; conditions: for solubility at 24 h: aqueous with cosolvent or surfactant or cyclodextrin, thermodynamic from solid, 20% hydroxypropyl beta cyclodextrin aqueous solution with 5% dextrose, 20° C.
Procedure: (§1) For each medium, the saturation of the medium is obtained by adding an excess of investigated compound to a given volume of test medium. The suspension is stirred at 20° C. for 24 h, the supernatant is then isolated and diluted to allow its injection into a chromatographic system. The concentration of the compound in solution for each medium is determined by external standardization.
Solubility was also investigated in a 20% hydroxypropyl beta cyclodextrin aqueous solution with 5% dextrose and the results are shown in Table 4.

S. aureus CIP 54.146 = assay: MIC determination using broth microdilution method; assay type: cell-based; conditions: Staphylococcus aureus, CIP54 / MSSA; MSSA CIP 54.146; range over a number of batches; read-out: MIC (μg/ml) (Broth microdilution) S. aureus CIP 54.146
Procedure: The compound of the invention is a useful antibacterial agent having a selective spectrum of activity in vitro against bacterial strains relying on FabI and related targets. […] The activity is presented as Minimum Inhibitory Concentration (MIC) expressed in μg/ml and was determined using broth microdilution or Agar dilution methods.
Antibacterial activity was determined on MSSA CIP 54.146 provided by the Centre de Ressources Biologiques de l'Institut Pasteur
This protocol is compliant with Clinical Laboratory Standards Institute (CLSI) methodology as described in M7-A7 document of the CLSI. The compound to be tested is diluted according to a geometric series of reason 2 in pure DMSO. Dilutions are transferred in sterile polystyrene microplates, followed by mid-log phase bacteria in cation-adjusted Muller-Hinton broth (ca-MHB, Fluka, Reference 90922) with a final inoculum of 5×10^5 cfu/ml. Microplates are incubated overnight at 35° C. MIC is defined as the lowest concentration of antimicrobial agent that completely prevents visible bacterial growth. All manipulations, but compound handling (in pure DMSO), are performed under sterile conditions. The final concentration of DMSO in the plates is 2%.

[2] = Aqueous solubility at pH 7.4 buffer; assay type: physicochemical; conditions: for solubility at 24 h: aqueous buffer, thermodynamic from solid, 20° C.
Procedure: as §1

E. coli FabI enzyme = E. coli FabI enzyme (Escherichia coli, UniProt P0AEK4); assay: In vitro inhibition of recombinant E. coli FabI enzyme; assay type: biochemical
Chain of E. coli FabI enzyme (P0AEK4 whole entry): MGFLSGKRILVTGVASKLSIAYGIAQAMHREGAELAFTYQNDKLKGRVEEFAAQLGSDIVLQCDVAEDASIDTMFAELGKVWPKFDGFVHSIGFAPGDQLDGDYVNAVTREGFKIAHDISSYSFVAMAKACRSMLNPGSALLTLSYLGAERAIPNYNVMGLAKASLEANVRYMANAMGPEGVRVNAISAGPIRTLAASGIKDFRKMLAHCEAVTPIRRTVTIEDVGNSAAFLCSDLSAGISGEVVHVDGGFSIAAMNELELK
Procedure: (§2) Compound inhibitory activity of FabI enzyme is measured in vitro by the IC50 determination using a fluorescence based assay.
(§3) The biochemical activity of the FabI enzyme is assessed using the following method.
The assay buffer “AB” contained 50 mM ADA (N-(2-acetamido)iminodiacetic acid monosodium salt) pH 6.5, 1 m M dithiothreitol, 0.006% Triton-X100 and 50 mM NaCl. The following components are added in a white polystyrene Costar plate (Ref 3912) up to a final volume of 55.5 μL: 1.5 μL DMSO or inhibitor dissolved in DMSO and 54 μL of a FabI/NADPH/NADP+ mixture in AB. After 60 min of pre-incubation at room temperature, the reaction is started by addition of 5 μL of trans-2-octenoyl N-acetylcysteamine thioester (t-o-NAC) to a final volume of 60.5 μL. […] Fluorescence intensity of NADPH (λex=360 nm, λem=520 nm) is measured immediately after t-O-NAC addition (T0), and approximately 50 min later (T50) by a Fluostar Optima (BMG) so as to achieve ±30% of NADPH conversion. Enzyme activity is calculated by first subtracting T0 signal to T50 and then subtracting background signal (FabI=0). Percentages of inhibition are calculated against untreated samples (Inhibitor=0) and IC50 are fitted to a classical Langmuir equilibrium model using XLFIT (IDBS).

FabI from S. aureus = target: T1, FabI from S. aureus (Staphylococcus aureus, UniProt Q6GI75); assay: In vitro inhibition of recombinant S. aureus FabI enzyme (fluorescence based assay); assay type: biochemical
T1 construct: made in house
T1 sequence (Q6GI75 1-256): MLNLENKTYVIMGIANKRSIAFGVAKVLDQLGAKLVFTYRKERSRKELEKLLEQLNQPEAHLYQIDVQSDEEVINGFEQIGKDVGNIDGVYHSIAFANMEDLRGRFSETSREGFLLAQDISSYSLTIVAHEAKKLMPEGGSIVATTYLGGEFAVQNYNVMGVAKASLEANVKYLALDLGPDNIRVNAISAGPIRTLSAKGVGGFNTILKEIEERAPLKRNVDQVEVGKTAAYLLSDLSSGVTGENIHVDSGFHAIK
Procedure: as §2
The protein FabI from S. aureus is prepared and purified using standard methods for recombinant protein expression after cloning of the gene in a prokaryotic expression vector.
as §3
The assay buffer “AB” contained 50 mM ADA (N-(2-acetamido)iminodiacetic acid monosodium salt) pH 6.5, 1 m M dithiothreitol, 0.006% Triton-X100 and 50 mM NaCl. The following components are added in a white polystyrene Costar plate (Ref 3912) up to a final volume of 55.5 μL: 1.5 μL DMSO or inhibitor dissolved in DMSO and 54 μL of a FabI/NADPH/NADP+ mixture in AB. […] Fluorescence intensity of NADPH (λex=360 nm, λem=520 nm) is measured immediately after t-O-NAC addition (T0), and approximately 50 min later (T50) by a Fluostar Optima (BMG) so as to achieve ±30% of NADPH conversion. Enzyme activity is calculated by first subtracting T0 signal to T50 and then subtracting background signal (FabI=0). Percentages of inhibition are calculated against untreated samples (Inhibitor=0) and IC50 are fitted to a classical Langmuir equilibrium model using XLFIT (IDBS).

[3] = Functional observation battery and evaluation of respiration function in rats; assay type: in vivo; conditions: compared to vehicle only
[4] = QT interval in conscious dogs after single intravenous infusion; assay type: in vivo
[5] = system: MSSA, MRSA, VISA and VRSA strains; assay: In vitro activity against pathogenic S. aureus strains; assay type: cell-based, Staphylococcus aureus; conditions: several pathogenic strains
Source text: (§4) Such increased solubility provides the significant advantage of allowing the compound of the invention to be administered intravenously.

hERG = hERG (Homo sapiens, UniProt Q12809); assay: hERG tail current amplitude in vitro; assay type: cell-based; conditions: after rundown subtraction
Chain of hERG (Q12809 whole entry): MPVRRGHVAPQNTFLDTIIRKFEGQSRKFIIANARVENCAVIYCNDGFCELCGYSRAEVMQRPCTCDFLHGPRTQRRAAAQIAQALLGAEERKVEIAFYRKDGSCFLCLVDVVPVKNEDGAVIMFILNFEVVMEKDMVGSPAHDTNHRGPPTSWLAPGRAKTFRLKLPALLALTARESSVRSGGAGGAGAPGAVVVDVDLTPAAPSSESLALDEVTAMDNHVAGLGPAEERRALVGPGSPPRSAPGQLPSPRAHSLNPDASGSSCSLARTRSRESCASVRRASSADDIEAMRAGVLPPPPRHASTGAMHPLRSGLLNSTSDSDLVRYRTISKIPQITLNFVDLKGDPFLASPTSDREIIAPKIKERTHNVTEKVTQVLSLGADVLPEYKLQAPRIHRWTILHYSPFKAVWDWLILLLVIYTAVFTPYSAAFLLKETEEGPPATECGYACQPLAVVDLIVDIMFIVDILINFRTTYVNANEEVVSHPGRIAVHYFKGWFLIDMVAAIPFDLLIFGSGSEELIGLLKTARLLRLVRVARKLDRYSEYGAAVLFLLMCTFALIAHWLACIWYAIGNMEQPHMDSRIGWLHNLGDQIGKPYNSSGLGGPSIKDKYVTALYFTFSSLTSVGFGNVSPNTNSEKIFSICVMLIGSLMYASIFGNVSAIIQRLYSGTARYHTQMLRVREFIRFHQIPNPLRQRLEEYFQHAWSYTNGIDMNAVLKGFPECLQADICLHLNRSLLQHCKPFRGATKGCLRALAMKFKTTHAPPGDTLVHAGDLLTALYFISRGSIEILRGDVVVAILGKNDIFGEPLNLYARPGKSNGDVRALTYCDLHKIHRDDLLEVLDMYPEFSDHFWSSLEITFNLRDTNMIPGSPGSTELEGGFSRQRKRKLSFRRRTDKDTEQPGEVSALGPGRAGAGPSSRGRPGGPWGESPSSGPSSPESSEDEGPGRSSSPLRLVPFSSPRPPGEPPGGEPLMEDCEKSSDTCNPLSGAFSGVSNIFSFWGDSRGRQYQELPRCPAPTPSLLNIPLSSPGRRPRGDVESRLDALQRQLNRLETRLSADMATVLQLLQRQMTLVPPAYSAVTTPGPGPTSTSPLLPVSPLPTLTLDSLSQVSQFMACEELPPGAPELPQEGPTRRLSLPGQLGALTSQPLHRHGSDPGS

[6] = system: Streptococcus and Enterococcus; assay: Activity against other Gram-positive pathogens not dependent upon FabI; assay type: cell-based
[7] = system: target bacterial populations; assay: Resistance and killing profile in target bacterial populations; assay type: cell-based
[8] = Panel of 112 in vitro binding assays and 42 in vitro enzyme assays; conditions: except human norepinephrine transporter
[9] = In vivo studies in rats and dogs (adverse effects)
[10] = system: MSSA, MRSA and VISA infections; assay: Murine infection model; assay type: in vivo
Source text: as §4

[11] = target: human norepinephrine transporter (Homo sapiens, UniProt P23975); assay: In vitro binding/enzyme panel: human norepinephrine transporter
Chain of human norepinephrine transporter (P23975 whole entry): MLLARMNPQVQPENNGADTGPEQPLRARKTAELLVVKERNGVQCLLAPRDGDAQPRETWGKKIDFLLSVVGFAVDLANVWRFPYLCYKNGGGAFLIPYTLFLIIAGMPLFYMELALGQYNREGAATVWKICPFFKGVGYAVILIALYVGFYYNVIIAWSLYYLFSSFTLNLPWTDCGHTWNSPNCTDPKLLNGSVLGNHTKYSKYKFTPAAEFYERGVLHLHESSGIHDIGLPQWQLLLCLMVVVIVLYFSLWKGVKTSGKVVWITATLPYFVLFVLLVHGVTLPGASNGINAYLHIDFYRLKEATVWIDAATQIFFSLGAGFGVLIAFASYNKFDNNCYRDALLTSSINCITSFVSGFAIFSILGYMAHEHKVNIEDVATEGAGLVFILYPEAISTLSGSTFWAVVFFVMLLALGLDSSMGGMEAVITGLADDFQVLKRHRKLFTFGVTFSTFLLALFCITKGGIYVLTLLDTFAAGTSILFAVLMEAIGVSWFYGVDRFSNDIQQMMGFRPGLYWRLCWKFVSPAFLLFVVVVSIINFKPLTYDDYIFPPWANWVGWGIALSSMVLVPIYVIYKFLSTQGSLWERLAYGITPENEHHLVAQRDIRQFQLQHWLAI

[12] = rats, intravenous; cited from earlier work

CCc1cc(O)c(Oc2cccnc2F)cc1F [Comparative Example 2, 5-Ethyl-4-fluoro-2-(2-fluoropyridin-3yloxy)phenol, reference compound]
solubility at 24 h [1]: 2400 µg/mL (≈ 9550 µM)
MIC (S. aureus CIP 54.146): 0.063 µg/mL (≈ 0.251 µM)
solubility at 24 h [2]: 8 µg/mL (≈ 31.8 µM)
IC50 (E. coli FabI enzyme; recombinant E. coli FabI, range over a number of batches, read-out: FabI Inhibition IC50 (μM) E. coli): 0.019 to 0.065 µM
IC50 (FabI from S. aureus; recombinant S. aureus FabI, range over a number of batches, read-out: FabI Inhibition IC50 (μM) S. aureus): 0.008 to 0.017 µM

CCc1cc(O)c(Oc2ccc(C(N)=O)cc2F)cc1F [Example 1, 4-(4-Ethyl-5-fluoro-2-hydroxyphenoxy)-3-fluorobenzamide]
Tolerability in functional observation battery and respiration function assays [3]: well tolerated
Fold more soluble than comparative example 2 ([1]; 20% hydroxypropyl beta cyclodextrin with 5% dextrose): ~5 fold
solubility at 24 h [1]: 11300 µg/mL (≈ 38500 µM)
MIC (S. aureus CIP 54.146): 0.063 to 0.125 µg/mL (≈ 0.215 to 0.426 µM)
Fold more soluble than comparative example 2 [2]: two fold
solubility at 24 h [2]: 16 µg/mL (≈ 54.6 µM)
Corrected QT after the end of infusion versus control group ([4]; after the end of infusion): generally lower than in the control group
QT interval prolongation ([4]; single intravenous infusion at 25, 50 and 100 mg/kg): no QT interval prolongation was observed
In vitro activity against MSSA, MRSA, VISA and VRSA strains [5]: highly active
IC50 (E. coli FabI enzyme): 0.058 to 0.068 µM
inhibition at 30 µM (hERG): 35.3%
Activity against Streptococcus and Enterococcus [6]: no activity
IC50 (FabI from S. aureus): 0.012 to 0.014 µM
Type of antibacterial effect ([7]; target bacterial populations): bacteriostatic or slow bactericidal effect
Spontaneous mutation rate towards drug resistance ([7]; target bacterial populations exposed to the compound): approximately 10^−9
Cross resistance with glycopeptides (Vancomycin) and oxazolidinones (Linezolid) ([7]; target microbial populations): no cross resistance
Affinity or activity in 112 in vitro binding assays and 42 in vitro enzyme assays [8]: devoid of any significant affinity or activity
Adverse effects during in vivo studies [9]: no major adverse effects were reported
In vivo activity in a murine model [10]: active in vivo
Inhibition of human norepinephrine transporter [11]: 88%

Oc1cc(Cl)ccc1Oc1ccc(Cl)cc1Cl [Triclosan]
LD50 [12]: 29 mg/kg
